From article PMC9178925 (Biochemical pharmacology, 2022)
Values joined by “and” are separate entries in the source; they are usually repeats but may differ in a detail not shown here. Identical values can stand only once.

Tests used:
[1] = target: T1, α1β2γ2L GABAAR (Rattus norvegicus, UniProt P62813+P63138); assay: Functional competition assay
[2] = target: α1(Q241L)β2γ2L GABAAR (Rattus norvegicus, UniProt P62813+P63138, Q268L); assay: Two-electrode voltage clamp, potentiation of low GABA currents in oocytes; type: cell-based, rat (β2 rat or human); conditions: 30 μM GABA alone
[3] = target: T1, α1β2γ2L GABAAR; assay: Two-electrode voltage clamp, concentration-response and mechanistic; type: cell-based, rat (β2 rat or human)
[4] = target: α1β2(N265S)γ2S GABAAR (Rattus norvegicus, UniProt P62813+P63138, N289S); assay: Two-electrode voltage clamp, potentiation of low GABA currents in oocytes; type: cell-based, rat (β2 rat or human)
[5] = target: α1β2γ2S GABAAR (Rattus norvegicus, UniProt P62813+P63138); type: cell-based, rat (β2 rat or human); conditions: 10 μM loreclezole, n = 5 oocytes

## CC(=O)[C@H]1CC[C@H]2[C@@H]3CC[C@@H]4C[C@H](O)CC[C@]4(C)[C@H]3CC[C@]12C [pregnanolone, 1-[(1S,3aS,3bR,5aR,7R,9aS,9bS,11aS)-7-Hydroxy-9a,11a-dimethylhexadecahydro-1H-cyclopenta[a]phenanthren-1-yl]ethan-1-one, reference compound]
[1]; 2 μM pregnanolone alone
  PA of peak response: 0.005 ± 0.002

## NCCCC(=O)O [GABA, γ-aminobutyric acid, reference compound]
[2]
  PA (probability of being in the active state) of peak response: 0.19 ± 0.05
[3]; 2 μM GABA alone, normalized to 1 mM GABA + 50 μM propofol
  PA (probability of being in the active state) of peak response: 0.18 and 0.17 ± 0.02 and 0.15 ± 0.02
[3]; 10 μM GABA alone, n = 6 oocytes
  PA of peak response: 0.26 ± 0.03
[1]; 0.05 μM GABA alone
  PA of peak response: 0.004 ± 0.001
[1]; 0.75 μM GABA alone
  PA of peak response: 0.051 ± 0.018
[1]; 0.2–0.5 μM GABA alone, n = 7 oocytes
  mean PA of the peak response: 0.009 ± 0.008
[1]; 1–2 μM GABA alone
  PA of peak response: 0.030 ± 0.007

## Cl/C(=C\n1cncn1)c1ccc(Cl)cc1Cl [loreclezole, reference compound]
[4]; 10 μM loreclezole, n = 4 oocytes
  potentiation of the responses to low GABA: 36 ± 6%
[5]
  potentiation of the responses to low GABA: 269 ± 46%
[3]
  EC50: 3.4 ± 0.6 µM
  Kd: 7.1 ± 2 µM
[3]; 10 μM GABA, Eq. 1, n = 6 oocytes
  cLor: 0.251 ± 0.049 and 0.251
[3]; loreclezole, 10 μM GABA, Hill equation
  nH: 1.27 ± 0.41
[1]; 10 μM loreclezole, 0.75 μM GABA
  potentiation of the peak response to GABA: 643 ± 91%
[1]; 10 μM loreclezole, 1 μM R(+)-etomidate
  enhancement of the peak response from receptors activated by R(+)-etomidate: 395 ± 48%
[1]; 0.2–0.5 μM GABA + 3 μM loreclezole
  PA of the peak response: 0.08 ± 0.05

## [Cl-].[Cl-].[Zn+2] [ZnCl2]
[4]; 10 μM ZnCl2 pre-applied 60 s then co-applied with GABA
  change of GABA responses (positive = potentiation): +11 ± 1%
